Literature values in PubChem BioAssay AID1259409 (Chemical Carcinogenesis Research Information System (CCRIS), 2018).

System: rodent chemically induced tumor inhibition, incidence and multiplicity
Assay: CCRIS tumor inhibitor studies

Row | Structure (SMILES) | tumour outcome (control, treated, inhibition, significance) (Carcinogen: 1,2-DIMETHYLHYDRAZINE DIHYDROCHLORIDE, 306-37-6, Dose [Inhibitor]: 0, 150 MG/KG BW 1/WK FOR 8 WK BEGINNING 20 D POST CARCINOGEN TREATMENT (STUDY DURATION: 26.5 WK), Route [Inhibitor]: INTRAPERITONEAL, Species: MOUSE, Strain/Sex: CF-1/FEMALE, Target Tissue: Type of Lesion: COLON: TUMOR, Dose [Carcinogen]: 20 MG/KG BW 1/WK FOR 8 WK, Promoter: NONE USED) | tumour outcome (control, treated, inhibition, significance) (Carcinogen: 1,2-DIMETHYLHYDRAZINE DIHYDROCHLORIDE, 306-37-6, Dose [Inhibitor]: 0, 150 MG/KG BW 1/WK FOR 12 WK ADMINISTERED 39 HR POST EACH CARCINOGEN DOSE (STUDY DURATION: 28 WK), Route [Inhibitor]: INTRAPERITONEAL, Species: MOUSE, Strain/Sex: CF-1/FEMALE, Target Tissue: Type of Lesion: COLON: TUMOR, Dose [Carcinogen]: 20 MG/KG BW 1/WK FOR 12 WK, Promoter: NONE USED) | tumour outcome (control, treated, inhibition, significance) (Carcinogen: 1,2-DIMETHYLHYDRAZINE DIHYDROCHLORIDE, 306-37-6, Dose [Inhibitor]: 0, 150 MG/KG BW 2/WK FOR 6 WK ADMINISTERED 15 AND 39 HR AFTER EACH CARCINOGEN DOSE (STUDY DURATION: 30 WK), Route [Inhibitor]: INTRAPERITONEAL, Species: MOUSE, Strain/Sex: CF-1/FEMALE, Target Tissue: Type of Lesion: COLON: TUMOR, Dose [Carcinogen]: 20 MG/KG BW 1/WK FOR 6 WK, Promoter: NONE USED) | tumour outcome (control, treated, inhibition, significance) (Carcinogen: 1,2-DIMETHYLHYDRAZINE DIHYDROCHLORIDE, 306-37-6, Dose [Inhibitor]: 0, 150 MG/KG BW 2/WK FOR 12 WK ADMINISTERED 15 AND 39 HR POST EACH CARCINOGEN DOSE (STUDY DURATION: 28 WK), Route [Inhibitor]: INTRAPERITONEAL, Species: MOUSE, Strain/Sex: CF-1/FEMALE, Target Tissue: Type of Lesion: COLON: TUMOR, Dose [Carcinogen]: 20 MG/KB BW 1/WK FOR 12 WK, Promoter: NONE USED) | tumour outcome (control, treated, inhibition, significance) (Carcinogen: AZOXYMETHANE, 25843-45-2, Dose [Inhibitor]: 0.5 MG/KG BW 1/2D IN OLIVE OIL BEGINNING 3 WK PRIOR TO FIRST CARCINOGEN DOSE (STUDY DURATION: 40 WK), Route [Inhibitor]: SUBCUTANEOUS, Species: RAT, Strain/Sex: WISTAR/MALE, Target Tissue: Type of Lesion: COLON: TUMOR, Dose [Carcinogen]: 7.4 MG/KG BW IN 0.9% SALINE SOLUTION 1/WK FOR 10 WK, Promoter: NONE USED) | tumour outcome (control, treated, inhibition, significance) (Carcinogen: N-METHYL-N'-NITRO-N-NITROSOGUANIDINE, 70-25-7, Dose [Inhibitor]: 0, 0.1 MG/KG IN OLIVE OIL SUSPENSION 1/D BEGINNING 1 WK POST LAST CARCINOGEN DOSE AND CONTINUING FOR DURATION OF STUDY (, Species: RAT, Strain/Sex: WISTAR/MALE, Target Tissue: Type of Lesion: GLANDULAR STOMACH: ADENOCARCINOMA, Dose [Carcinogen]: 50 UG/ML IN DRINKING WATER FOR 25 WK, Promoter: NONE USED) | tumour outcome (control, treated, inhibition, significance) (Carcinogen: 7,12-DIMETHYLBENZ[A]ANTHRACENE, 57-97-6, Dose [Inhibitor]: 0, 17 NMOL 2/WK APPLIED 1 HR PRIOR TO EACH PROMOTER DOSE FOR 20 WK (STUDY DURATION: 21 WK), Route [Inhibitor]: DERMAL, Species: MOUSE, Target Tissue: Type of Lesion: SKIN: TUMOR, Dose [Carcinogen]: 390 NMOL ONCE, Promoter: 12-O-TETRADECANOYLPHORBOL-13-ACETATE, 16561-29-8)
1 | CC(C)NCC(O)c1ccc(O)c(O)c1 (configuration not stated) | 10/12 (83%), 10/12 (83%), 0%, not significant | 12/12 (100%), 9/9 (100%), 0%, not significant | 4/9 (44%), 0/8 (0%), 100%, not calculated | 12/12 (100%), 8/8 (100%), 0%, not significant | 18/20 (90%), 10/18 (56%), 38%, p<0.05 | 15/18 (83%), 9/20 (45%), 46%, p<0.05 | 
2 | Brc1c(Br)c(Br)c2c(c1Br)Oc1c(Br)c(Br)c(Br)c(Br)c1O2 |  |  |  |  |  |  | 100%, 93%, 7%, not calculated
